Laboratory results from patent publication US5981530A, “Piperazine derivative” (Senju Pharmaceutical Co., Ltd., priority 1995, dated 1999).
Counter-ions that a name gives are not always drawn.

System: rat palpebral PCA reaction
Experiment: Passive cutaneous anaphylactic (PCA) reaction of the rat palpebra
Assay type: in vivo, rat (male Wistar)
Conditions: 100 mg/5 ml/kg oral, 60 min prior to induction of PCA; for Degree of Inhibition (%): vs negative control
Method: Effect of the compound of the invention on the passive cutaneous anaphylactic (PCA) reaction of the rat palpebra
The effect of the compound of the invention on rat palpebral PCA reaction was investigated.
Male Wistar rats weighing about 120 g were purchased from Japan SLC for the experiment.
Using a microsyringe, 25 μl of antiserum (32-fold dilution) was injected beneath the palpebral conjunctiva of the right eye of rats under pentobarbital anesthesia. Forty-eight (48) hours after injection of antiserum, a mixture of 2% chicken egg albumin and 1% Evans blue, 5 ml/kg, was administered into the tail vein to induce PCA reaction. Thirty (30) minutes after induction, the rat was sacrificed and the stained portion of the palpebral conjunctiva of the right eye was excised. The dye was extracted into 5 ml of formamide, and the amount of the dye was determined at 625 nm.
The test substance, 100 mg/5 ml/kg, was administered orally 60 minutes prior to induction of PCA reaction.
As a negative control, 5 ml/kg of 0.5% carboxymethylcellulose (CMC) was administered orally. As a positive control, 100 mg/5 ml/kg of diphenhydramine hydrochloride, a commercial antihistaminic, was administered orally.

[1] = Table 1, mean ± SD (n = 5), negative control 0.662 ± 0.112, *1 p < 0.05, *2 p < 0.001
[2] = Table 1, n = 5, *1 p < 0.05, *2 p < 0.001

| Structure (SMILES) | Absorbance (extracted dye, 625 nm) [1] | Degree of Inhibition (%) [2] [%] | Absorbance (extracted dye, 625 nm) (Table 2, mean ± SD (n = 6), negative control 0.486 ± 0.093, *1 p < 0.001) | Degree of Inhibition (%) (Table 2, n = 6, *1 p < 0.001) |
| --- | --- | --- | --- | --- |
| COc1ccc(OCC(O)CN2CCN(c3ccccc3C(=O)O)CC2)c(C(C)(C)C)c1 (stereo not drawn) [Example 1, 3-[4-(2-Carboxyphenyl)piperazinyl]-1-(2-tert-butyl-4-methoxyphenoxy)propan-2-ol] | 0.299 ± 0.056 | 54.8 |  |  |
| CN(C)CCOC(c1ccccc1)c1ccccc1 [Diphenhydramine HCl, diphenhydramine hydrochloride, reference compound] | 0.413 ± 0.126 | 37.6 |  |  |
| O=C(O)c1ccccc1N1CCN(CC(O)COc2cccc3[nH]ccc23)CC1 (stereo not drawn) [Example 5, 3-[4-(2-Carboxyphenyl)piperazinyl]-1-(1H-indol-4-yloxy)propan-2-ol] |  |  | 0.276 ± 0.048 | 43.2 |
